Key:
[1] = target: Receptor-type tyrosine-protein kinase FLT3 (Homo sapiens, UniProt P36888, D835H); experiment: Binding affinity to human partial length FLT3 D835H mutant (592 to 969 residues) expressed in bacterial expression system after 1 hr
MV4-11 = experiment: Cell cycle arrest in human MV4-11 cells assessed as accumulation at subG1 phase at 100 nM after 48 hrs by PI/RNase staining based FACS analysis (reference value: 0%); format: functional
[2] = target: T1, Receptor-type tyrosine-protein kinase FLT3 (Homo sapiens, UniProt P36888)
T1 sequence (P36888 whole entry): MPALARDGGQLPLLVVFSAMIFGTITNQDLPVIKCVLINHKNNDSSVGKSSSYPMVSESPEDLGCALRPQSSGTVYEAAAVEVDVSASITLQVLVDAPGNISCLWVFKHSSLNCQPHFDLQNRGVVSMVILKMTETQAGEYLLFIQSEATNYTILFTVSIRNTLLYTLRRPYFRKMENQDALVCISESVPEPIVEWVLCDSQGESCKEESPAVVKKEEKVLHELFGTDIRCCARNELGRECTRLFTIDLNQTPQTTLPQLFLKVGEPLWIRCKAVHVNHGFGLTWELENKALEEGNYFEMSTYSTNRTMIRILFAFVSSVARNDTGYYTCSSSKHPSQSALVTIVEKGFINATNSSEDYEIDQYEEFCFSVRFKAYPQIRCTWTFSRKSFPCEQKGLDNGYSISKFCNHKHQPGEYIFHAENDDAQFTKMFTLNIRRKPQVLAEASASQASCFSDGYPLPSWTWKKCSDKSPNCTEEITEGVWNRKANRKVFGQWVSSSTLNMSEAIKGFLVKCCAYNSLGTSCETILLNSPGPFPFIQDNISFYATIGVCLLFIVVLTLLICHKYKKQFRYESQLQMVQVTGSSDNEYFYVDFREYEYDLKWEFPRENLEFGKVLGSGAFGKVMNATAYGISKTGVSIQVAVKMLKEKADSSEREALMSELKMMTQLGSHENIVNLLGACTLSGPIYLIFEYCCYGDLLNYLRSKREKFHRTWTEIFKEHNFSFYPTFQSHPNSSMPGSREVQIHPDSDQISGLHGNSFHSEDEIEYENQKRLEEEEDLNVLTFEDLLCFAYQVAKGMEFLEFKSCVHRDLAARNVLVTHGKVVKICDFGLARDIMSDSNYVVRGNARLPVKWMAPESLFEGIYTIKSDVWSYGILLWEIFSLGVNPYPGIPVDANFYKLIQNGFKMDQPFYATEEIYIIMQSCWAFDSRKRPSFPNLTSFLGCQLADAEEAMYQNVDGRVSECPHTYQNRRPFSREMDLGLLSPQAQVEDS
Description: Inhibition of human N-terminal GST-tagged FLT3 (564 to 993 residues) expressed in baculovirus expression system using peptide FAM-P2 as substrate incubated for 10 mins followed by substrate addition by mobility shift assay

## Cc1cc(Nc2ncc3ncc(=O)n(-c4ccc(N)cc4)c3n2)ccc1N1CCN(C)CC1
[1]
  Kd: 1.8 nM
MV4-11
  Activity: 12%
[2]
  IC50: 1.56 nM

Reference: ChEMBL document CHEMBL4477208, “Discovery and Rational Design of Pteridin-7(8H)-one-Based Inhibitors Targeting FMS-like Tyrosine Kinase 3 (FLT3) and Its Mutants” (J Med Chem, 2016)
